Source: patent publication US10196363B2, “Dihydropyrimidin-2-one compounds and medical use thereof” (JAPAN TOBACCO INC., priority 2014, dated 2019)
Like-named read-outs stand apart in the source and are kept apart here.

Experiments:
mouse RORγ = target: T1, mouse RORγ (Mus musculus, UniProt P51450); assay: In vitro assay of inhibitory effect against RORγ transcriptional activity (GAL4-mRORγ LBD luciferase reporter gene assay in CHO cells); assay type: cell-based; details: for mRORγ luciferase activity, %-of-control: value in parentheses beside the > EC50 bound, vehicle-control 0.2% DMSO alone = 100%
T1 construct: mouse RORγ, from Ile251 to Lys516; expressed in transfected cells; host or cells: CHO cells (Chinese hamster ovary), transient co-transfection with pG5-Luc
T1 sequence (P51450 251-516): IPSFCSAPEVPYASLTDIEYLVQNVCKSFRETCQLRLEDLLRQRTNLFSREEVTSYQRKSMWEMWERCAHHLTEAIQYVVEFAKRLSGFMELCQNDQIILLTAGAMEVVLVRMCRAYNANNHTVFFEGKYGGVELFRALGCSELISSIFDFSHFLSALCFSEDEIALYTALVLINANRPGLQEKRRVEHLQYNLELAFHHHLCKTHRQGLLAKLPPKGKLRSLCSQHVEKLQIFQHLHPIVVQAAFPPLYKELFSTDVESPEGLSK
Procedure, shortened: (§1)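 Luciferase output, normalised to 0.2% DMSO vehicle (100%), served as the measure of RORγ transcriptional activity. The reporter was driven by GAL4-fused ligand-binding domains of human (residues 253–518) or mouse (251–516) RORγ in transiently transfected CHO cells. Cells received eight-point compound dilutions for 2 days, EC50 values were fitted, and cytotoxic points were dropped.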

human RORγ = target: T2, human RORγ (Homo sapiens, UniProt P51449); assay: In vitro assay of inhibitory effect against RORγ transcriptional activity (GAL4-hRORγ LBD luciferase reporter gene assay in CHO cells); assay type: cell-based; details: for hRORγ luciferase activity, %-of-control: value in parentheses beside the > EC50 bound, vehicle-control 0.2% DMSO alone = 100%
T2 construct: human RORγ, from Ser253 to Lys518; expressed in transfected cells; host or cells: CHO cells (Chinese hamster ovary), transient co-transfection with pG5-Luc
T2 sequence (P51449 253-518): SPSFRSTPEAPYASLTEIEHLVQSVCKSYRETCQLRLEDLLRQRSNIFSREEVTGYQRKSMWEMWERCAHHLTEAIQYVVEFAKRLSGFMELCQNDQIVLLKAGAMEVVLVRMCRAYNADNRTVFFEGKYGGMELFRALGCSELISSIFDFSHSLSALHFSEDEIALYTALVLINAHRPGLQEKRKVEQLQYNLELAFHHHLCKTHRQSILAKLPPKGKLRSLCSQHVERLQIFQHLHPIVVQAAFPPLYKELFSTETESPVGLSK
Procedure, shortened: as §1

[1] = GAL4-mRORγ LBD luciferase reporter, CHO cells, read-out: LUC EC50 mRORγ
[2] = GAL4-hRORγ LBD luciferase reporter, CHO cells, read-out: LUC EC50 hRORγ
[3] = GAL4-mRORγ LBD / pG5-Luc in CHO cells, 2 days incubation
[4] = GAL4-hRORγ LBD / pG5-Luc in CHO cells, 2 days incubation

Compound | EC50 (mouse RORγ; [1]) [nM] | EC50 (human RORγ; [2]) [nM] | EC50 (mouse RORγ; [3]) [nM] | mRORγ luciferase activity, %-of-control (mouse RORγ) | EC50 (human RORγ; [4]) [nM] | hRORγ luciferase activity, %-of-control (human RORγ)
COCC(C)C1=CN(CCC(=O)O)C(=O)N[C@@]1(C)c1ccc(CCC(C)(C)C)c(Cl)c1 (single isomer, unassigned) [Example 305] | 6 | 3 | – | – | – | –
COCC(C)C1=CN(CCC(=O)O)C(=O)N[C@@]1(C)c1ccc(CCC(C)(C)C)c(Cl)c1 (single isomer, unassigned) [Example 306] | 27 | 63 | – | – | – | –
COCC(C)C1=CN(c2ccc(C(=O)O)cc2)C(=O)N[C@@]1(C)c1ccc(CCC(C)(C)C)c(Cl)c1 (single isomer, unassigned) [Example 307] | 13 | 5 | – | – | – | –
COCC(C)C1=CN(c2ccc(C(=O)O)cc2)C(=O)N[C@@]1(C)c1ccc(CCC(C)(C)C)c(Cl)c1 (single isomer, unassigned) [Example 308] | 25 | 32 | – | – | – | –
CC(C)C1=CN(CCC(=O)O)C(=O)N[C@@]1(C)c1ccc(CC(O)C(C)(C)C)c(Cl)c1 (single isomer, unassigned) [Example 310] | 277 | 476 | – | – | – | –
CC(C)C1=CN(CCC(=O)O)C(=O)N[C@@]1(C)c1ccc(CC(O)C(C)(C)C)c(Cl)c1 (single isomer, unassigned) [Example 311] | 94 | 86 | – | – | – | –
COCCC1=CN(C23CCC(C(=O)O)(C2)C3)C(=O)N[C@@]1(C)c1ccc([C@H]2C[C@@H](C(C)(C)C)C2)c(Cl)c1 (single isomer, unassigned) [Example 344] | 12 | 13 | – | – | – | –
COCC(C)C1=CN(C23CCC(C(=O)O)(C2)C3)C(=O)N[C@@]1(C)c1ccc(CCC(C)(C)C)c(Cl)c1 (single isomer, unassigned) [Example 351] | 11 | 4 | – | – | – | –
COCC(C)C1=CN(C23CCC(C(=O)O)(C2)C3)C(=O)N[C@@]1(C)c1ccc(CCC(C)(C)C)c(Cl)c1 (single isomer, unassigned) [Example 352] | 51 | 63 | – | – | – | –
CC(C)(C)CCc1ccc([C@@]2(C)NC(=O)N(CCCC(=O)O)C=C2C2CCCCC2)cc1Cl [Example 31] | – | – | > 3200 | (52%) | 3070 | –
CC(C)(C)CCc1ccc([C@]2(C)NC(=O)N(CCCC(=O)O)C=C2C2CCCCC2)cc1Cl [Example 32] | – | – | 46 | – | 26 | –
CC(C)C1=CN(CC(C)(C)CC(=O)O)C(=O)N[C@]1(C)c1ccc(CCC(C)(C)C)c(Cl)c1 [Example 35] | – | – | > 3200 | (52%) | > 3200 | (51%)
CC(C)C1=CN(CC(C)(C)CC(=O)O)C(=O)N[C@@]1(C)c1ccc(CCC(C)(C)C)c(Cl)c1 [Example 36] | – | – | 24 | – | 21 | –
CC(C)CC1=CN(CCCC(=O)O)C(=O)N[C@]1(C)c1ccc(CCC(C)(C)C)c(Cl)c1 [Example 37] | – | – | 282 | – | 154 | –
CC(C)CC1=CN(CCCC(=O)O)C(=O)N[C@@]1(C)c1ccc(CCC(C)(C)C)c(Cl)c1 [Example 38] | – | – | 15 | – | 11 | –
CC(C)CCC1=CN(CCCC(=O)O)C(=O)N[C@]1(C)c1ccc(CCC(C)(C)C)c(Cl)c1 [Example 43] | – | – | 835 | – | 564 | –
CC(C)CCC1=CN(CCCC(=O)O)C(=O)N[C@@]1(C)c1ccc(CCC(C)(C)C)c(Cl)c1 [Example 44] | – | – | 90 | – | 51 | –
CC(C)C1=CN(CCc2ccc(C(=O)O)cc2)C(=O)N[C@]1(C)c1ccc(CCC(C)(C)C)c(Cl)c1 [Example 49] | – | – | 832 | – | 983 | –
CC(C)C1=CN(CCc2ccc(C(=O)O)cc2)C(=O)N[C@@]1(C)c1ccc(CCC(C)(C)C)c(Cl)c1 [Example 50] | – | – | 13 | – | 7 | –
CC(C)(C)CCc1ccc([C@@]2(C)NC(=O)N(CCCC(=O)O)C=C2C2(C)CC2)cc1Cl [Example 51] | – | – | 1080 | – | 1180 | –
CC(C)(C)CCc1ccc([C@]2(C)NC(=O)N(CCCC(=O)O)C=C2C2(C)CC2)cc1Cl [Example 52] | – | – | 15 | – | 10 | –
CC(C)C1=CN(CCC(C)(C)C(=O)O)C(=O)N[C@]1(C)c1ccc(CCC(C)(C)C)c(Cl)c1 [Example 54] | – | – | > 8000 | (81%) | > 8000 | (92%)
CC(C)(C)CCc1ccc([C@@]2(C)NC(=O)N(CCCC(=O)O)C=C2C2CC2)cc1Cl [Example 56] | – | – | 4290 | – | 5160 | –
CC(C)(C)CCc1ccc([C@]2(C)NC(=O)N(CCCC(=O)O)C=C2C2CC2)cc1Cl [Example 57] | – | – | 22 | – | 31 | –
CC(C)(C)CCc1ccc([C@@]2(C)NC(=O)N(CCCC(=O)O)C=C2C2CCC2)cc1Cl [Example 58] | – | – | 1650 | – | 1250 | –
CC(C)(C)CCc1ccc([C@]2(C)NC(=O)N(CCCC(=O)O)C=C2C2CCC2)cc1Cl [Example 59] | – | – | 20 | – | 12 | –
CC1=CN(CCCC(=O)O)C(=O)N[C@]1(C)c1ccc(CCC(C)(C)C)c(Cl)c1 [Example 60] | – | – | 12400 | – | 15300 | –
CC1=CN(CCCC(=O)O)C(=O)N[C@@]1(C)c1ccc(CCC(C)(C)C)c(Cl)c1 [Example 61] | – | – | 46 | – | 143 | –
CCC1=CN(CCCC(=O)O)C(=O)N[C@]1(C)c1ccc(CCC(C)(C)C)c(Cl)c1 [Example 68] | – | – | 1760 | – | 1240 | –
CCC1=CN(CCCC(=O)O)C(=O)N[C@@]1(C)c1ccc(CCC(C)(C)C)c(Cl)c1 [Example 69] | – | – | 17 | – | 20 | –

The next lines start with the values.

EC50 (mouse RORγ; [1]) [nM] | EC50 (human RORγ; [2]) [nM] | EC50 (mouse RORγ; [3]) [nM] | mRORγ luciferase activity, %-of-control (mouse RORγ) | EC50 (human RORγ; [4]) [nM] | hRORγ luciferase activity, %-of-control (human RORγ) | Compound
34 | 36 | – | – | – | – | CC(C)(C)CCc1ccc([C@]2(C)NC(=O)N(C3CC(C)(C)C3)C=C2[C@H]2C[C@H](C(=O)O)C2)cc1Cl (single isomer, unassigned) [Example 287]
16 | 11 | – | – | – | – | CC(C)C1=CN(CC(C)C(=O)O)C(=O)N[C@@]1(C)c1ccc(CCC(C)(C)C)c(Cl)c1 (single isomer, unassigned) [Example 299]
14 | 10 | – | – | – | – | CC(C)C1=CN(CC(C)C(=O)O)C(=O)N[C@@]1(C)c1ccc(CCC(C)(C)C)c(Cl)c1 (single isomer, unassigned) [Example 300]
538 | 248 | – | – | – | – | COC(=O)[C@H]1C[C@H](N2C=C([C@H]3C[C@@H](CO)C3)[C@](C)(c3ccc(CCC(C)(C)C)c(Cl)c3)NC2=O)C1 (single isomer, unassigned) [Example 312]
– | – | > 8000 | (59%) | > 8000 | (69%) | CC(C)C1=CN(CCCC(=O)O)C(=O)N[C@]1(C)c1ccc(CCC(C)(C)C)c(Cl)c1 [Example 14]
– | – | 12 | – | 12 | – | CC(C)C1=CN(CCCC(=O)O)C(=O)N[C@@]1(C)c1ccc(CCC(C)(C)C)c(Cl)c1 [Example 15]
– | – | > 8000 | (61%) | > 8000 | (59%) | CC(C)C1=CN([C@H]2C[C@H](C(=O)O)C2)C(=O)N[C@]1(C)c1ccc(CCC(C)(C)C)c(Cl)c1 [Example 41]
– | – | 28 | – | 31 | – | CC(C)C1=CN([C@H]2C[C@H](C(=O)O)C2)C(=O)N[C@@]1(C)c1ccc(CCC(C)(C)C)c(Cl)c1 [Example 42]
– | – | 7510 | – | 7330 | – | CC(C)C1=CN([C@H]2C[C@@H](C(=O)O)C2)C(=O)N[C@]1(C)c1ccc(CCC(C)(C)C)c(Cl)c1 [Example 45]
– | – | 16 | – | 17 | – | CC(C)C1=CN([C@H]2C[C@@H](C(=O)O)C2)C(=O)N[C@@]1(C)c1ccc(CCC(C)(C)C)c(Cl)c1 [Example 46]
– | – | 764 | – | 1100 | – | CC(C)C1=CN(CCCCC(=O)O)C(=O)N[C@]1(C)c1ccc(CCC(C)(C)C)c(Cl)c1 [Example 47]
– | – | 16 | – | 12 | – | CC(C)C1=CN(CCCCC(=O)O)C(=O)N[C@@]1(C)c1ccc(CCC(C)(C)C)c(Cl)c1 [Example 48]
– | – | 26 | – | 22 | – | CC(C)C1=CN(CCC(C)(C)C(=O)O)C(=O)N[C@@]1(C)c1ccc(CCC(C)(C)C)c(Cl)c1 [Example 55]
– | – | 2680 | – | 3610 | – | CC(C)C1=CN([C@H]2CC[C@@H](C(=O)O)CC2)C(=O)N[C@]1(C)c1ccc(CCC(C)(C)C)c(Cl)c1 [Example 66]
– | – | 17 | – | 23 | – | CC(C)C1=CN([C@H]2CC[C@@H](C(=O)O)CC2)C(=O)N[C@@]1(C)c1ccc(CCC(C)(C)C)c(Cl)c1 [Example 67]
